Numbered stars: 1 amine (or outer) side, 2 acyl side, 3 side chain; on linkers, the order of the positions; unused ones are H or OH. Bridge positions count the residues as written; N and C are the ends. Square brackets hold non-standard residues; d marks the D form. Peptide text beside a SMILES is read from it. * marks the point of attachment. Phe(4-COOH) = N[C@@H](Cc1ccc(C(=O)O)cc1)C(=O)O; Bip = N[C@@H](Cc1ccc(-c2ccccc2)cc1)C(=O)O; NH(CH2)14COOH = O=C(O)CCCCCCCCCCCCCCN*; Phe(3-Me) = Cc1cccc(C[C@H](N)C(=O)O)c1; Phe(4-F) = N[C@@H](Cc1ccc(F)cc1)C(=O)O; βAsp = O=C(O)[C@H](CC(=O)[*:2])N[*:1]; Val(3-OH) = CC(C)(O)[C@H](N)C(=O)O; hArg = N=C(N)NCCCC[C@H](N)C(=O)O; 4Pal = N[C@@H](Cc1ccncc1)C(=O)O; Cha = N[C@@H](CC1CCCCC1)C(=O)O; Cit = NC(=O)NCCC[C@H](N)C(=O)O; Phg = N[C@H](C(=O)O)c1ccccc1; 12Ado = NCCCCCCCCCCCC(=O)O; Carboxymethyl = O=C(O)C*; Orn = NCCC[C@H](N)C(=O)O; Pra = C#CC[C@H](N)C(=O)O; Aun = NCCCCCCCCCCC(=O)O; Dab = NCC[C@H](N)C(=O)O; Dap = NC[C@H](N)C(=O)O; AEEA = NCCOCCOCC(=O)O
Target: T1, PD-1/PD-L1 interaction (PE-labeled human PD-L1-Ig binding to Jurkat cell line over-expressing human PD-1) (Homo sapiens, UniProt Q15116)
T1 construct: expressed in transfected cells; host or cells: Jurkat
Assay: Jurkat-PD-1 Cell Binding High-Content Screening Assay (CBA)
Format: cell-based
Conditions: Jurkat cell line over-expressing human PD-1; PE-labeled PD-L1-Ig 20 nM final; read-out: Jurkat hPD1-PDL1 IC50
How it was run: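 Human PD-L1-Ig carrying a covalent PE label on its Ig tag serves as the probe, applied at 20 nM final to compound-treated (2 h, 37° C) Jurkat-hPD-1 cells in medium with 10% fetal calf serum. After one hour, fixation and nuclear staining precede high-content image analysis.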

T1 sequence (Q15116 25-288): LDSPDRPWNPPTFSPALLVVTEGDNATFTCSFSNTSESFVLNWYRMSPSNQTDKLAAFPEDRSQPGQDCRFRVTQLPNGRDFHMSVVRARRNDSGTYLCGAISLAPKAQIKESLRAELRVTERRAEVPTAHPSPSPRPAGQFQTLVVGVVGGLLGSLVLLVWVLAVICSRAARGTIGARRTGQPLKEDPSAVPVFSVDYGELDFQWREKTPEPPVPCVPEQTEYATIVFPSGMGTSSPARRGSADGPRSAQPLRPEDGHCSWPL

SMILES	IC50 [nM]
Cc1cccc(C[C@@H]2NC(=O)[C@H](CC(=O)O)NC(=O)[C@H](Cc3ccc(OCC(=O)O)cc3)NC(=O)[C@H](CN)NC(=O)CSC[C@@H](C(=O)N[C@@H](CCN)C(=O)NCCCCCCCCCCC(=O)O)NC(=O)[C@H](c3ccccc3)NC(=O)[C@H](C(C)C)NC(=O)[C@H](CC(C)C)NC(=O)[C@H](CCN)NC(=O)[C@@H](CC(C)C)NC(=O)[C@H](CCCN)NC(=O)[C@H](Cc3ccc(O)cc3)NC(=O)[C@H](Cc3ccc(-c4ccccc4)cc3)NC(=O)[C@H](C(C)C)NC2=O)c1 [Compound 2761] ({CH2CO}-[Dap]Y(Carboxymethyl)D[Phe(3-Me)]V[Bip]Y[Orn][dL][Dab]LV[Phg]C[Dab][Aun]-OH; thioether N-14)	154
Cc1cccc(C[C@@H]2NC(=O)[C@H](CC(=O)O)NC(=O)[C@H](Cc3ccc(OCC(=O)O)cc3)NC(=O)[C@H](CCN)NC(=O)CSC[C@@H](C(=O)N[C@@H](CCN)C(=O)NCCOCCOCC(=O)N[C@@H](CCC(=O)O)C(=O)NCCCCCCCCCCCCCCC(=O)O)NC(=O)[C@H](CO)NC(=O)[C@H](C(C)(C)O)NC(=O)[C@H](CC3CCCCC3)NC(=O)[C@H](CCN)NC(=O)[C@@H](CC(C)C)NC(=O)[C@H](CCCN)NC(=O)[C@H](Cc3ccc(OCC(=O)O)cc3)NC(=O)[C@H](Cc3ccc(-c4ccccc4)cc3)NC(=O)[C@H](Cc3ccc(OCC(=O)O)cc3)NC2=O)c1 [Compound 3814] ({CH2CO}-[Dab]Y(Carboxymethyl)D[Phe(3-Me)]Y(Carboxymethyl)[Bip]Y(Carboxymethyl)[Orn][dL][Dab][Cha][Val(3-OH)]SC[Dab][AEEA]E-{NH(CH2)14COOH}; thioether N-14)	53.4
CC(C)C[C@H]1NC(=O)[C@H](CCCN)NC(=O)[C@H](C(C)C)NC(=O)[C@H](Cc2ccc(-c3ccccc3)cc2)NC(=O)[C@H](C(C)C)NC(=O)[C@H](Cc2c[nH]c3ccccc23)NC(=O)[C@H](CC(=O)O)NC(=O)[C@H](Cc2ccc(OCC(=O)O)cc2)NC(=O)[C@H](CCCCNC(=N)N)NC(=O)CSC[C@@H](C(=O)N[C@@H](CCCN)C(=O)NCCCCCCCCCCCC(=O)O)NC(=O)[C@H](CO)NC(=O)[C@H](C(C)C)NC(=O)[C@H](CC2CCCCC2)NC(=O)[C@H](CC(N)=O)NC1=O [Compound 3156] ({CH2CO}-[hArg]Y(Carboxymethyl)DWV[Bip]V[Orn][dL]N[Cha]VSC[Orn][12Ado]-OH; thioether N-14)	34.5
Cc1cccc(C[C@@H]2NC(=O)[C@H](CC(=O)O)NC(=O)[C@H](Cc3ccncc3)NC(=O)[C@H](Cc3ccc(OCC(=O)O)cc3)NC(=O)CSC[C@@H](C(=O)N[C@@H](CCCNC(=N)N)C(=O)NCCCCCCCCCCC(=O)O)NC(=O)[C@H]([C@@H](C)O)NC(=O)[C@H](C(C)C)NC(=O)[C@H](CC3CCCCC3)NC(=O)[C@H](CCN)NC(=O)[C@@H](CC(C)C)NC(=O)[C@H](CCCN)NC(=O)[C@H](C(C)C)NC(=O)[C@H](Cc3ccc(-c4ccccc4)cc3)NC(=O)[C@H](C(C)C)NC2=O)c1 [Compound 1167] ({CH2CO}-Y(Carboxymethyl)[4Pal]D[Phe(3-Me)]V[Bip]V[Orn][dL][Dab][Cha]VTCR[Aun]-OH; thioether N-14)	80.1
Cc1cccc(C[C@@H]2NC(=O)[C@H](CC(=O)O)NC(=O)[C@H](Cc3ccc(OCC(=O)O)cc3)NC(=O)[C@H](CN)NC(=O)CSC[C@@H](C(=O)N[C@@H](CCN)C(=O)NCCOCCOCC(=O)NCCCCCCCCCCC(=O)O)NC(=O)[C@H](CCC(=O)O)NC(=O)[C@H](C(C)C)NC(=O)[C@H](Cc3ccc(F)cc3)NC(=O)[C@H](CCN)NC(=O)[C@@H](CC(C)C)NC(=O)[C@H](CCCN)NC(=O)[C@H](Cc3ccc(OCC(=O)O)cc3)NC(=O)[C@H](Cc3ccc(-c4ccccc4)cc3)NC(=O)[C@H](Cc3ccc(C(=O)O)cc3)NC2=O)c1 [Compound 1270] ({CH2CO}-[Dap]Y(Carboxymethyl)D[Phe(3-Me)][Phe(4-COOH)][Bip]Y(Carboxymethyl)[Orn][dL][Dab][Phe(4-F)]VEC[Dab][AEEA][Aun]-OH; thioether N-14)	48.4

The next compounds have a lower IC50 than those just listed; values first:

IC50 [nM]	SMILES
5.7	Cc1cccc(C[C@@H]2NC(=O)[C@H](CC(=O)O)NC(=O)[C@H](Cc3ccc(OCC(=O)O)cc3)NC(=O)[C@H](CN)NC(=O)CSC[C@@H](C(=O)N[C@@H](C)C(=O)N[C@@H](CCC(=O)O)C(=O)NCCOCCOCC(=O)N[C@@H](CC(=O)NCCOCCOCC(=O)NCCCCCCCCCCC(=O)O)C(=O)O)NC(=O)[C@H]([C@@H](C)O)NC(=O)[C@H](C(C)C)NC(=O)[C@H](CC3CCCCC3)NC(=O)[C@H](CCN)NC(=O)[C@@H](CC(C)C)NC(=O)[C@H](CCCN)NC(=O)[C@H](CCCNC(N)=O)NC(=O)[C@H](Cc3ccc(-c4ccccc4)cc3)NC(=O)[C@H](C(C)C)NC2=O)c1 [Compound 1022] ({CH2CO}-[Dap]Y(Carboxymethyl)D[Phe(3-Me)]V[Bip][Cit][Orn][dL][Dab][Cha]VTCAE[AEEA][βAsp][AEEA][Aun]-OH; thioether N-14)
15.1	Cc1cccc(C[C@@H]2NC(=O)[C@H](CC(=O)O)NC(=O)[C@H](Cc3ccc(OCC(=O)O)cc3)NC(=O)[C@H](CN)NC(=O)CSC[C@@H](C(=O)N[C@@H](CCN)C(=O)NCCCCCCCCCCC(=O)O)NC(=O)[C@H]([C@@H](C)O)NC(=O)[C@H](C(C)C)NC(=O)[C@H](CC3CCCCC3)NC(=O)[C@H](CCN)NC(=O)[C@@H](CC(C)C)NC(=O)[C@H](CCN)NC(=O)[C@H](Cc3ccc(OCC(=O)O)cc3)NC(=O)[C@H](Cc3ccc(-c4ccccc4)cc3)NC(=O)[C@H](Cc3ccc(O)cc3)NC2=O)c1 [Compound 2087] ({CH2CO}-[Dap]Y(Carboxymethyl)D[Phe(3-Me)]Y[Bip]Y(Carboxymethyl)[Dab][dL][Dab][Cha]VTC[Dab][Aun]-OH; thioether N-14)
6.4	Cc1cccc(C[C@@H]2NC(=O)[C@H](CC(=O)O)NC(=O)[C@H](Cc3ccc(OCC(=O)O)cc3)NC(=O)[C@H](CCCNC(=N)N)NC(=O)CSC[C@@H](C(=O)N[C@@H](CCN)C(=O)NCCCCCCCCCCC(=O)O)NC(=O)[C@H](CO)NC(=O)[C@H](C(C)(C)O)NC(=O)[C@H](CC3CCCCC3)NC(=O)[C@H](CCN)NC(=O)[C@@H](CC(C)C)NC(=O)[C@H](CCCN)NC(=O)[C@H](Cc3ccc(OCC(=O)O)cc3)NC(=O)[C@H](Cc3ccc(-c4ccccc4)cc3)NC(=O)[C@H](Cc3ccc(O)cc3)NC2=O)c1 [Compound 2111] ({CH2CO}-RY(Carboxymethyl)D[Phe(3-Me)]Y[Bip]Y(Carboxymethyl)[Orn][dL][Dab][Cha][Val(3-OH)]SC[Dab][Aun]-OH; thioether N-14)
32.8	C#CC[C@H](NC(=O)COCCOCCNC(=O)[C@@H]1CSCC(=O)N[C@@H](Cc2ccncc2)C(=O)N[C@@H](Cc2ccc(OCC(=O)O)cc2)C(=O)N[C@@H](CC(=O)O)C(=O)N[C@@H](Cc2c[nH]c3ccccc23)C(=O)N[C@@H](C(C)C)C(=O)N[C@@H](Cc2ccc(-c3ccccc3)cc2)C(=O)N[C@@H]([C@@H](C)CC)C(=O)N[C@@H](CCCN)C(=O)N[C@H](CC(C)C)C(=O)N[C@@H](CCN)C(=O)N[C@@H](CC(C)C)C(=O)N[C@@H](C(C)C)C(=O)N[C@@H]([C@@H](C)O)C(=O)N1)C(=O)N[C@@H](CCCN)C(=O)NCCCCCCCCCCC(=O)O [Compound 1213] ({CH2CO}-[4Pal]Y(Carboxymethyl)DWV[Bip]I[Orn][dL][Dab]LVTC[AEEA][Pra][Orn][Aun]-OH; thioether N-14)
